# Laboratory results published in ChEMBL document CHEMBL1201862, “PubChem BioAssay data set” (2004).
#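 Where inhibition never reached the appropriate level, the endpoint shown equals the highest concentration tested. Otherwise, values were interpolated linearly from a five-concentration, 48-hour dose response in 96-well plates. The concentration for 50% growth inhibition is given as GI50.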 Activity calls are given as the source filed them. No stated cut-off is given here; in the data, active = GI50 up to about 1.1 µM and inactive = higher.
# Columns and labels:
# Test in all cases: DTP human tumour cell line panel, 48 h
# 786-0 = system: 786-0
# A498 = system: A498
# ACHN = system: ACHN
# BT-549 = system: BT-549
# CCRF-CEM = system: CCRF-CEM
# COLO 205 = system: COLO 205
# DU-145 = system: DU-145
# HCC 2998 = system: HCC 2998
# HL-60 = system: HL-60
# HT-29 = system: HT-29
# Hs-578T = system: Hs-578T
# IGROV-1 = system: IGROV-1
# KM12 = system: KM12
# LOX IMVI = system: LOX IMVI
# M14 = system: M14
# MCF7 = system: MCF7
# MDA-MB-231 = system: MDA-MB-231
# MDA-N = system: MDA-N
# MOLT-4 = system: MOLT-4
# NCI-H226 = system: NCI-H226
# NCI-H23 = system: NCI-H23
# NCI-H460 = system: NCI-H460
# NCI-H522 = system: NCI-H522
# NCI/ADR-RES = system: NCI/ADR-RES
# OVCAR-3 = system: OVCAR-3
# OVCAR-5 = system: OVCAR-5
# OVCAR-8 = system: OVCAR-8
# PC-3 = system: PC-3
# SF-268 = system: SF-268
# SF-295 = system: SF-295
# SF-539 = system: SF-539
# SK-MEL-5 = system: SK-MEL-5
# SN12C = system: SN12C
# SNB-19 = system: SNB-19
# SR = system: SR
# SW-620 = system: SW-620
# T47D = system: T47D
# TK-10 = system: TK-10
# UACC-62 = system: UACC-62
# A549 = system: A549
# CAKI-1 = system: CAKI-1
# EKVX = system: EKVX
# HCT-116 = system: HCT-116
# HCT-15 = system: HCT-15
# HOP-62 = system: HOP-62
# HOP-92 = system: HOP-92
# K562 = system: K562
# MDA-MB-435 = system: MDA-MB-435
# Malme-3M = system: Malme-3M
# OVCAR-4 = system: OVCAR-4
# RPMI-8226 = system: RPMI-8226
# RXF 393 = system: RXF 393
# SK-MEL-28 = system: SK-MEL-28
# SK-MEL-2 = system: SK-MEL-2
# SK-OV-3 = system: SK-OV-3
# SNB-75 = system: SNB-75
# U-251 = system: U-251
# UACC-257 = system: UACC-257
# UO-31 = system: UO-31
smiles,measurement,setting,value
COc1cc2c3c(n(CCCNCCO)c(=O)c2cc1OC)-c1cc2c(cc1C3=O)OCO2,GI50,786-0,< 0.01 µM (active)
same,GI50,A498,0.378 µM (active)
same,GI50,ACHN,< 0.01 µM (active)
same,GI50,BT-549,0.935 µM (active)
same,GI50,CCRF-CEM,< 0.01 µM (active)
same,GI50,COLO 205,0.392 µM (active)
same,GI50,DU-145,< 0.01 µM (active)
same,GI50,HCC 2998,0.536 µM (active)
same,GI50,HL-60,< 0.0465 µM (active)
same,GI50,HT-29,< 0.0311 µM (active)
same,GI50,Hs-578T,1.71 µM (inactive)
same,GI50,IGROV-1,0.0935 µM (active)
same,GI50,KM12,0.541 µM (active)
same,GI50,LOX IMVI,< 0.01 µM (active)
same,GI50,M14,0.0422 µM (active)
same,GI50,MCF7,< 0.01 µM (active)
same,GI50,MDA-MB-231,0.537 µM (active)
same,GI50,MDA-N,0.611 µM (active)
same,GI50,MOLT-4,< 0.01 µM (active)
same,GI50,NCI-H226,0.206 µM (active)
same,GI50,NCI-H23,< 0.01 µM (active)
same,GI50,NCI-H460,< 0.01 µM (active)
same,GI50,NCI-H522,< 0.038 µM (active)
same,GI50,NCI/ADR-RES,0.546 µM (active)
same,GI50,OVCAR-3,0.813 µM (active)
same,GI50,OVCAR-5,0.384 µM (active)
same,GI50,OVCAR-8,0.158 µM (active)
same,GI50,PC-3,1.02 µM (active)
same,GI50,SF-268,< 0.0338 µM (active)
same,GI50,SF-295,< 0.01 µM (active)
same,GI50,SF-539,0.0381 µM (active)
same,GI50,SK-MEL-5,0.19 µM (active)
same,GI50,SN12C,< 0.01 µM (active)
same,GI50,SNB-19,0.012 µM (active)
same,GI50,SR,< 0.01 µM (active)
same,GI50,SW-620,0.16 µM (active)
same,GI50,T47D,0.0165 µM (active)
same,GI50,TK-10,1.38 µM (inactive)
same,GI50,UACC-62,0.0236 µM (active)
O=C1NC(N2CCCC(CO)C2)=N/C1=C\c1cccs1 (stereo unspecified),GI50,786-0,> 100 µM (inactive)
same,GI50,A549,> 100 µM (inactive)
same,GI50,ACHN,> 100 µM (inactive)
same,GI50,BT-549,> 100 µM (inactive)
same,GI50,CAKI-1,> 100 µM (inactive)
same,GI50,CCRF-CEM,> 100 µM (inactive)
same,GI50,COLO 205,> 100 µM (inactive)
same,GI50,DU-145,> 100 µM (inactive)
same,GI50,EKVX,> 100 µM (inactive)
same,GI50,HCC 2998,> 100 µM (inactive)
same,GI50,HCT-116,> 100 µM (inactive)
same,GI50,HCT-15,> 100 µM
same,GI50,HL-60,> 100 µM (inactive)
same,GI50,HOP-62,> 100 µM (inactive)
same,GI50,HOP-92,> 100 µM (inactive)
same,GI50,HT-29,> 100 µM (inactive)
same,GI50,Hs-578T,> 100 µM (inactive)
same,GI50,IGROV-1,> 100 µM (inactive)
same,GI50,K562,> 100 µM (inactive)
same,GI50,KM12,> 100 µM (inactive)
same,GI50,LOX IMVI,> 100 µM (inactive)
same,GI50,M14,> 100 µM (inactive)
same,GI50,MCF7,> 100 µM (inactive)
same,GI50,MDA-MB-231,> 100 µM (inactive)
same,GI50,MDA-MB-435,> 100 µM (inactive)
same,GI50,MDA-N,> 100 µM (inactive)
same,GI50,MOLT-4,> 100 µM (inactive)
same,GI50,Malme-3M,> 100 µM (inactive)
same,GI50,NCI-H226,> 100 µM (inactive)
same,GI50,NCI-H23,> 100 µM (inactive)
same,GI50,NCI-H522,> 100 µM (inactive)
same,GI50,NCI/ADR-RES,> 100 µM (inactive)
same,GI50,OVCAR-3,> 100 µM (inactive)
same,GI50,OVCAR-4,> 100 µM (inactive)
same,GI50,OVCAR-5,> 100 µM (inactive)
same,GI50,OVCAR-8,> 100 µM (inactive)
same,GI50,PC-3,> 100 µM (inactive)
same,GI50,RPMI-8226,> 100 µM (inactive)
same,GI50,RXF 393,> 100 µM (inactive)
same,GI50,SF-268,> 100 µM (inactive)
same,GI50,SF-295,> 100 µM (inactive)
same,GI50,SF-539,> 100 µM (inactive)
same,GI50,SK-MEL-28,> 100 µM (inactive)
same,GI50,SK-MEL-2,> 100 µM (inactive)
same,GI50,SK-MEL-5,> 100 µM (inactive)
same,GI50,SK-OV-3,> 100 µM (inactive)
same,GI50,SN12C,> 100 µM (inactive)
same,GI50,SNB-19,> 100 µM (inactive)
same,GI50,SNB-75,98.2 µM (inactive)
same,GI50,SR,> 100 µM (inactive)
same,GI50,SW-620,> 100 µM (inactive)
same,GI50,T47D,> 100 µM (inactive)
same,GI50,TK-10,> 100 µM (inactive)
same,GI50,U-251,> 100 µM (inactive)
same,GI50,UACC-257,> 100 µM (inactive)
same,GI50,UACC-62,> 100 µM (inactive)
same,GI50,UO-31,> 100 µM (inactive)
Cn1c(=O)c2c(nc(NCCCCl)n2CC(=O)NCCCCl)n(C)c1=O,GI50,786-0,> 100 µM (inactive)
same,GI50,A498,> 100 µM (inactive)
same,GI50,A549,> 100 µM (inactive)
same,GI50,ACHN,> 100 µM (inactive)
same,GI50,BT-549,> 100 µM (inactive)
same,GI50,CAKI-1,> 100 µM (inactive)
same,GI50,CCRF-CEM,> 100 µM (inactive)
same,GI50,COLO 205,> 100 µM (inactive)
same,GI50,DU-145,> 100 µM (inactive)
same,GI50,EKVX,> 100 µM (inactive)
same,GI50,HCC 2998,> 100 µM (inactive)
same,GI50,HCT-116,> 100 µM (inactive)
same,GI50,HCT-15,> 100 µM
same,GI50,HL-60,> 100 µM (inactive)
same,GI50,HOP-62,> 100 µM (inactive)
same,GI50,HOP-92,> 100 µM (inactive)
same,GI50,HT-29,> 100 µM (inactive)
same,GI50,Hs-578T,> 100 µM (inactive)
same,GI50,IGROV-1,> 100 µM (inactive)
same,GI50,K562,> 100 µM (inactive)
same,GI50,KM12,> 100 µM (inactive)
same,GI50,LOX IMVI,> 100 µM (inactive)
same,GI50,M14,> 100 µM (inactive)
same,GI50,MDA-MB-231,> 100 µM (inactive)
same,GI50,MDA-MB-435,> 100 µM (inactive)
same,GI50,MDA-N,> 100 µM (inactive)
same,GI50,MOLT-4,> 100 µM (inactive)
same,GI50,NCI-H226,> 100 µM (inactive)
same,GI50,NCI-H23,> 100 µM (inactive)
same,GI50,NCI-H460,> 100 µM (inactive)
same,GI50,NCI-H522,> 100 µM (inactive)
same,GI50,NCI/ADR-RES,> 100 µM (inactive)
same,GI50,OVCAR-3,> 100 µM (inactive)
same,GI50,OVCAR-4,> 100 µM (inactive)
same,GI50,OVCAR-5,> 100 µM (inactive)
same,GI50,OVCAR-8,> 100 µM (inactive)
same,GI50,PC-3,> 100 µM (inactive)
same,GI50,RPMI-8226,> 100 µM (inactive)
same,GI50,RXF 393,> 100 µM (inactive)
same,GI50,SF-268,> 100 µM (inactive)
same,GI50,SF-295,> 100 µM (inactive)
same,GI50,SK-MEL-28,> 100 µM (inactive)
same,GI50,SK-MEL-2,> 100 µM (inactive)
same,GI50,SK-MEL-5,> 100 µM (inactive)
same,GI50,SK-OV-3,> 100 µM (inactive)
same,GI50,SN12C,> 100 µM (inactive)
same,GI50,SNB-19,> 100 µM (inactive)
same,GI50,SNB-75,> 100 µM (inactive)
same,GI50,SW-620,> 100 µM (inactive)
same,GI50,T47D,> 100 µM (inactive)
same,GI50,TK-10,> 100 µM (inactive)
same,GI50,U-251,> 100 µM (inactive)
same,GI50,UACC-257,> 100 µM (inactive)
same,GI50,UACC-62,> 100 µM (inactive)
same,GI50,UO-31,> 100 µM (inactive)
